Measurements from patent US11058691B2, “Nitric oxide releasing prostaglandin derivatives for treating normal tension glaucoma” (BAUSCH & LOMB INCORPORATED, priority 2016, dated 2021).
Entries after “also recorded” stand apart in the source; their conditions may differ. Where a name gives a salt, the structure may show the parent alone.

Assays:
[1] = Post hoc analysis of two Phase 3 clinical studies: IOP lowering in fellow eyes with baseline IOP ≤21 mm Hg; type: in vivo, human; settings: for IOP lowering: fellow eyes with normal IOP at baseline (≤21 mm Hg mean diurnal)
Excerpt: The findings reported below derive from a post hoc analysis of the results of two multicenter, double-masked, parallel-group Phase 3 clinical studies that evaluated the intraocular pressure (IOP) lowering effect of a 0.024% solution of Compound (1) dissolved in vehicle in subjects with open-angle glaucoma or ocular hypertension.
Subjects≥18 years instilled one drop of a 0.024% solution of Compound (1) once daily in the evening and vehicle in the morning or timolol maleate 0.5% twice daily for 3 months (active controlled efficacy phase). Thereafter all subjects instilled Compound (1) for a further 9 months in the first study or 3 months in the second study (open-label safety extension phase).
Intraocular pressure (IOP) was measured at 8 AM, 12 PM, and 4 PM at all visits including baseline, week 2, week 6, month 3, month 6 (both studies) and months 9 and 12 (first study only).
Non-study (i.e. fellow) eyes with normal IOP at baseline treated with Compound (1) 0.024% once a day in the evening (n=50; treatment for up to 12 months) or with timolol maleate 0.5% twice a day (n=17; treatment for 3 months) were identified, and IOP outcomes were summarized using descriptive statistics and two-sided, 95% confidence intervals (CI) for the means.
Normal IOP was defined as ≤21 mm Hg (mean diurnal; average of 8 AM, 12 PM and 4 PM measurements) in the primarily Caucasian population.

[2] = Post hoc analysis of a single-arm open-label Phase 3 clinical study in Japanese subjects: IOP lowering in eyes with baseline IOP ≤19 mm Hg; type: in vivo, human; settings: Japanese population, baseline IOP ≤19 mm Hg (10 AM); 0.024% solution once daily in the evening; over the 12 months study period
Excerpt: The findings reported below derive from a post hoc analysis of the results of a single-arm, multicenter, open-label Phase 3 clinical study that evaluated the IOP lowering effect of a 0.024% solution of Compound (1) dissolved in vehicle in Japanese subjects with open-angle glaucoma (including normal-tension glaucoma, pigmentary glaucoma, or pseudoexfoliative glaucoma) or ocular hypertension.
Subjects≥20 years instilled one drop of a 0.024% solution of Compound (1) once daily in the evening for 12 months. Intraocular pressure was measured at 10 AM at baseline, and every 4 weeks thereafter for a total of 13 visits. Study and non-study (i.e. fellow) eyes with normal IOP at baseline treated with Compound (1) 0.024% once a day in the evening (n=66 and n=79 for treated study and treated fellow eyes respectively) were identified, and IOP outcomes were summarized using descriptive statistics and two-sided, 95% confidence intervals (CI) for the means.
Normal IOP was defined as ≤19 mm Hg (mean IOP measured at 10 AM) in the Japanese population, since Asian populations typically have lower IOP than non-Asian populations.

[3] = 3 month efficacy phase, Compound (1) 0.024% once daily in the evening, timolol maleate 0.5% twice daily

| Structure (SMILES) | IOP lowering effectiveness (in words) ([1]; eyes with IOP in the normal range (baseline ≤21 mm Hg), 0.024% QD in the evening) | IOP lowering ([1]; 0.024% solution once daily in the evening, over the 12 months study period) | IOP lowering [1, 3] | IOP lowering in the study eye [2] | IOP lowering in the treated fellow eye [2] |
| --- | --- | --- | --- | --- | --- |
| O=C(CCC/C=C\C[C@@H]1[C@@H](CC[C@@H](O)CCc2ccccc2)[C@H](O)C[C@@H]1O)OCCCCO[N+](=O)[O-] (relative stereo) [Compound (1), [1R-[1α(Z), 2α(R*), 3α, 5α]]-7-[3,5-dihydroxy-2-(3-hydroxy-5-phenylpentyl)cyclopentyl]-5-heptenoic acid 4-(nitrooxy)butyl ester] | appears to be more effective than timolol maleate; also recorded: effective for IOP lowering in eyes with IOP in the normal range | 4.2-4.9 mm Hg | 4.6-4.9 mm Hg | 3.4-4.2 mm Hg | 3.2-3.9 mm Hg |
| CC(C)(C)NC[C@H](O)COc1nsnc1N1CCOCC1 [timolol maleate, reference compound] |  |  | 3.6-4.5 mm Hg |  |  |
